# Data from patent publication US10421718B2, “EBNA1 inhibitors and their method of use” (priority 2013, dated 2019).
# Counter-ions that a name gives are not always drawn.
# Biological target: T1, His-EBNA1 (DNA binding domain of EBNA1, amino acids 459-607) (Epstein-Barr virus, UniProt P03211)
# T1 construct: made in house; host or cells: E. coli
# Experiment: Inhibition of 5′-biotin-oPL4624 binding to His-EBNA1 using Alpha Screen technology
# Conditions: Alpha Screen Activity (IC50, inhibition of 5′-biotin-oPL4624 binding to His-EBNA1), 15 nM His-EBNA1, 0.2 nM bt-oPL4624, 2 hr room temperature
# Method in brief: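 AlphaScreen signal (680 nm ex, 570 nm em) after a 2-h room-temperature incubation, normalized to no-EBNA1 (100% inhibition) and EBNA1 (0%) values and fit to a one-site curve. Final conditions: 15 nM His-EBNA1 (aa 459-607), 0.2 nM bt-oPL4624, Tris pH 7.2 buffer with 160 mM NaCl, compound 3.2 nM to 100 μM.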
# T1 sequence (P03211 459-607): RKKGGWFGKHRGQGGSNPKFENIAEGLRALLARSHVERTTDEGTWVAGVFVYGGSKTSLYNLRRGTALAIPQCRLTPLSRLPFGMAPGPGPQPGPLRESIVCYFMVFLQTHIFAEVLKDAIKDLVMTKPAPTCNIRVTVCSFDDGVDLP
row,SMILES,IC50 [µM]
1,"O=C(O)c1cccc(C#Cc2ccncc2)c1-c1ccc2[nH]ccc2c1 [Entry 270, 2-(1H-indol-5-yl)-3-[2-(pyridin-4-yl)ethynyl]benzoic acid; trifluoroacetate salt]",10 to 100
2,"O=C(O)c1cccc(C#Cc2ccncc2)c1-c1cc(O)cc(Cl)c1 [Entry 271, 2-(3-chloro-5-hydroxyphenyl)-3-[2-(pyridin-4-yl)ethynyl]benzoic acid; trifluoroacetate salt]",1 to 10
3,"O=C(O)c1cccc(C#Cc2ccncc2)c1-c1cc(O)cc(F)c1 [Entry 272, 2-(3-fluoro-5-hydroxyphenyl)-3-[2-(pyridin-4-yl)ethynyl]benzoic acid; trifluoroacetate salt]",10 to 100
4,"COc1cc(OC)cc(-c2c(C#Cc3ccncc3)cccc2C(=O)O)c1 [Entry 273, 2-(3,5-dimethoxyphenyl)-3-[2-(pyridin-4-yl)ethynyl]benzoic acid; trifluoroacetate salt]",10 to 100
5,"O=C(O)c1cccc(C#CC(O)c2ccc(F)cc2)c1-c1cccc(O)c1 (stereo not shown) [Entry 274, 3-[3-(4-fluorophenyl)-3-hydroxyprop-1-yn-1-yl]-2-(3-hydroxyphenyl)benzoic acid]",1 to 10
6,"O=C(O)c1cccc(C#Cc2cccc(O)c2)c1-c1ccccc1Oc1ccccc1 [Entry 275, 3-[2-(3-hydroxyphenyl)ethynyl]-2-(2-phenoxyphenyl)benzoic acid]",10 to 100
7,"O=C(O)c1cccc(C#Cc2cccc(O)c2)c1-c1c[nH]c2ccccc12 [Entry 276, 3-[2-(3-hydroxyphenyl)ethynyl]-2-(1H-indol-3-yl)benzoic acid]",10 to 100
8,"COc1cc(OC)cc(-c2c(C#Cc3cccc(O)c3)cccc2C(=O)O)c1 [Entry 277, 2-(3,5-dimethoxyphenyl)-3-[2-(3-hydroxyphenyl)ethynyl]benzoic acid]",10 to 100
9,"NC(=O)c1cccc(C#Cc2cccc(C(=O)O)c2N)c1 [Entry 278, 2-amino-3-[2-(3-carbamoylphenyl)ethynyl]benzoic acid; trifluoroacetate salt]",10 to 100
10,"Nc1c(C#Cc2cccc(C(=O)O)c2)cccc1C(=O)O [Entry 279, 2-amino-3-[2-(3-carboxyphenyl)ethynyl]benzoic acid; trifluoroacetate salt]",10 to 100
11,"C(#Cc1ccc2[nH]ccc2c1)c1cccc(-c2nnn[nH]2)c1 [Entry 280, 5-[3-(1H-tetrazol-5-yl)-phenylethynyl]-1H-indole 5-(3-Ethynyl-phenyl)-1H-tetrazole]",1 to 10
12,"C(#Cc1c[nH]c2ncccc12)c1cccc(-c2nnn[nH]2)c1 [Entry 281, 3-[3-(1H-tetrazol-5-yl)-phenylethynyl]-1H-pyrrolo[2,3-b]pyridine]",10 to 100
13,"C(#Cc1ccc2cc[nH]c2c1)c1cccc(-c2nnn[nH]2)c1 [Entry 282, 6-[3-(1H-tetrazol-5-yl)-phenylethynyl]-1H-indole]",1 to 10
14,"O=S(=O)(c1ccccc1)n1cc(C#Cc2cccc(-c3nnn[nH]3)c2)c2ccccc21 [Entry 283, 1-benzenesulfonyl-3-[3-(1H-tetrazol-5-yl)-phenylethynyl]-1H-indole]",< 1
15,"C(#Cc1c[nH]c2ccccc12)c1cccc(-c2nnn[nH]2)c1 [Entry 284, 3-[3-(1H-tetrazol-5-yl)-phenylethynyl]-1H-indole]",< 1
16,"OCc1ccccc1C#Cc1cccc(-c2nnn[nH]2)c1 [Entry 285, {2-[3-(1H-tetrazol-5-yl)-phenylethynyl]-phenyl}-methanol]",10 to 100

row,SMILES,IC50 [µM]
1,"O=C(O)c1cccc(C#Cc2cccc(C(=O)N3CCOCC3)c2)c1 [Entry 286, 3-[3-(morpholine-4-carbonyl)-phenylethynyl]-benzoic acid]",10 to 100
2,"CNC(=O)c1cccc(C#Cc2cccc(C(=O)O)c2)c1 [Entry 287, 3-(3-methylcarbamoyl-phenylethynyl)-benzoic acid]",10 to 100
3,"CN(C)C(=O)c1cccc(C#Cc2cccc(C(=O)O)c2)c1 [Entry 288, 3-(3-dimethylcarbamoyl-phenylethynyl)-benzoic acid]",100 to 1000
4,"CN1CCN(C(=O)c2cccc(C#Cc3cccc(C(=O)O)c3)c2)CC1 [Entry 289, 3-[3-(4-methyl-piperazine-1-carbonyl)-phenylethynyl]-benzoic acid]",100 to 1000
5,"O=C(O)c1cccc(C#Cc2cccc(C(=O)N3CCN(c4ccccc4)CC3)c2)c1 [Entry 290, 3-[3-(4-phenyl-piperazine-1-carbonyl)-phenylethynyl]-benzoic acid]",10 to 100
6,"O=C(O)c1cccc(C#Cc2ccncc2)c1-n1ccc2ccccc21 [Entry 291, 2-indol-1-yl-3-pyridin-4-ylethynyl-benzoic acid]",10 to 100
7,"O=C(O)c1cccc(C#Cc2ccncc2)c1-n1ccnc1 [Entry 292, 2-imidazol-1-yl-3-pyridin-4-ylethynyl-benzoic acid]",100 to 1000
8,"O=C(O)c1cccc(C#Cc2ccncc2)c1-n1cncn1 [Entry 293, 3-pyridin-4-ylethynyl-2-[1,2,4]triazol-1-yl-benzoic acid]",10 to 100
9,"O=C(O)c1cccc(C#Cc2ccccc2)c1-n1ccnc1 [Entry 294, 2-imidazol-1-yl-3-phenylethynyl-benzoic acid]",10 to 100
10,"O=C(O)c1cccc(C#Cc2ccccc2)c1-n1cccn1 [Entry 295, 3-phenylethynyl-2-pyrazol-1-yl-benzoic acid]",100 to 1000
11,"O=C(O)c1cccc(C#Cc2ccccc2)c1-n1cncn1 [Entry 296, 3-phenylethynyl-2-[1,2,4]triazol-1-yl-benzoic acid]",10 to 100
12,"O=C(O)c1cccc(C#Cc2ccccc2)c1-n1cnc2ccccc21 [Entry 297, 2-benzoimidazol-1-yl-3-phenylethynyl-benzoic acid]",10 to 100
13,"O=C(O)c1cccc(C#Cc2ccccc2)c1-n1ncc2ccccc21 [Entry 298, 2-indazol-1-yl-3-phenylethynyl-benzoic acid]",10 to 100
14,"O=C(O)c1cccc(C#Cc2ccccc2)c1-n1ccc2ccccc21 [Entry 299, 2-indol-1-yl-3-phenylethynyl-benzoic acid]",1 to 10
15,"O=C(O)c1cccc(C#Cc2ccncc2)c1-n1cnc2ccccc21 [Entry 300, 2-benzoimidazol-1-yl-3-pyridin-4-ylethynyl-benzoic acid]",10 to 100
